Test results taken from patent publication US11666580B2, “Mechanism of resistance to bet bromodomain inhibitors” (Dana-Farber Cancer Institute, Inc., priority 2015, dated 2023).
Where two headings read alike, the source gives them in different places.

What was measured:
SUM159 and SUM149 cells = experiment: RNA-seq following JQ1 treatment; format: cell-based, human; conditions: different time points following JQ1 500 nM
Experimental: Quantifying changes in gene expression of SE proximal genes. Genes within 50 kb of SE in SUM159 or SUM149 were identified and filtered for expression status (>1 FPKM expression in any sample), and filtered to remove non poly-adenylated transcripts (e.g. microRNAs). For SUM159, log2 fold changes in gene expression at SE associated genes or all expressed genes was compared at 3, 12, and 24 hours post JQ1 treatment (FIG. 2F). For SUM149, comparisons were made at 12 hours post JQ1 treatment (Extended Data FIG. 3B). The statistical significance of differences between distributions of changes was also assessed using a Welch's two-tailed t test.

SUM159 cells = experiment: Apoptosis (sub-G1 fraction and Annexin-V staining); format: cell-based, human; conditions: prolonged exposure 48-72 hours, JQ1 500 nM
Experimental: Cell viability and growth assays (FIGS. 1A-1B, FIGS. 3A-3E, 3G, FIGS. 5D-5F, FIGS. 6C, 6E, 6I, FIG. 7A, FIG. 10D, FIGS. 14A-14C), cycle, apoptosis, and MDR assays were performed in triplicates and repeated 2-3 times. For cell proliferation assays, cells were plated at 500 cells per well in 96-well plates and treated the next day with inhibitors, DMSO or doxycycline (500 ng). Cells were cultured at 37° C. with 5% CO2 in the media described-above, and cell viability was measured using CellTiter-Glo three days after treatments. For cell growth assays, cells were plated at 5000 (SUM159) or 20000 (SUM149) cells per well in 6-well plates and treated the next day with inhibitors. Cells were counted every three days by cell counter. Cellular apoptosis was analyzed with an APC AnnexinV/7ADD Apoptosis Detection kit (BD Pharmingen). AnnexinV/7AAD assessments and cell cycle graphics were generated using FlowJo software V7.6.1 for Windows (Tree Star). Senescence Beta-gal staining was performed using Senescence β-Galactosidase staining kit from Cell signaling. Briefly, after JQ1 treatment (500 nM) for 72 h, SUM159 and MDA-MB-231 cells were fixed by Fixative Solution for 15 min, followed by β-Galactosidase solution incubation overnight at 37° C. The staining was checked under microscope for the development of blue color. […] The cells were analyzed by fluorescent microscope and FACS. […]

[1] = test system: tumors derived from SUM159; experiment: Xenograft assay, SUM159; format: in vivo, mice; conditions: two weeks of JQ1, 50 mg/kg daily
Experimental: For xenograft assays 5-6-weeks old female CrTac:NCr-Foxn1^nu and NOD.Cg-Prkdc^scid Il2rg^tm1Sug/JicTac mice were purchased from Taconic. Tumors were induced by bilateral orthotopic mammary fat pad injection of 1×10^6 cells in 50% Matrigel (BD Biosciences) in DMEM/F12 or Medium 171 (except for IDC50-X cells, which were injected with 3% FBS and 4 mg/ml collagen gel in Medium 171). Animal experiments were conducted following protocol 11-023 approved by the Dana-Farber Cancer Institute Animal Care and Use Committee.

[2] = target: BRD4-MED1 association in SUM159 cells (Homo sapiens, UniProt O60885); experiment: BRD4 immunoprecipitation followed by immunoblot for MED1, resistant cells; format: cell-based; set-up: Observations from RIME data were pursued by BRD4 immunoprecipitation followed by immunoblot analysis for MED1 and BRD3; endogenous in cells; host or cells: SUM159 and SUM159R cells (nuclear extracts); conditions: resistant cells
Experimental: Cells were lysed five days after transfection with siRNAs in RIPA buffer. Proteins were resolved in SDS-polyacrylamide gels (4%-12%) and transferred to PVDF membranes by using a Tris-glycine buffer system. […] Cells were incubated on ice for 15 min and gently vortexed every 5 min. […] After centrifugation of the lysates at 14 g for 10 min at 4° C., supernatant was diluted with 0.6 ml buffer A, and added NP-40 to final 0.5% and treated with DNase I. The samples were then incubated at 4° C. overnight with BRD4 or Flag antibodies at 1:100 dilution and immunoprecipitates were collected on Dynabeads Protein G for 2 hr. Beads were washed with buffer B containing 150 mM NaCl and 0.5% NP-40 three times and then resuspended in gel loading buffer. Immunoblotting and immunoprecipitation experiments were repeated 2-3 times.

[3] = target: T1, chromatin-bound BRD4 in SUM159 cells (Homo sapiens, UniProt O60885)
Experimental: Chem-seq was performed essentially as described^27. ChIP-seq: SUM159 and SUM159R cells (4×10^7) were grown in SUM Medium. The media were then removed and replaced with media containing 1% formaldehyde (EM grade; tebu-bio) and crosslinked for 8 min. Crosslinking was quenched by adding glycine to a final concentration of 0.2 M. The cells were washed with ice-cold PBS, harvested in PBS, and the cell pellet was washed with PBS. The nuclear fraction was extracted by first resuspending the pellet in 10 ml of LB1 buffer (50 mM HEPES-KOH [pH 7.5], 140 mM NaCl, 1mMEDTA, 10% glycerol, 0.5% NP-40 or Igepal CA-630, and 0.25% Triton X-100) for 10 min at 4° C. Cells were pelleted, resuspended in 10 ml of LB2 buffer (10 mM Tris-HCL [pH 8.0], 200 mM NaCl, 1 mM EDTA, and 0.5 mM EGTA), and mixed for 5 min. Cells were pelleted and resuspended in 300 μl of LB3 buffer (10 mM Tris-HCl [pH 8], 100 mM NaCl, 1 mM EDTA, 0.5 mM EGTA, 0.1% Na-deoxycholate, and 0.5% N-lauroylsarcosine) and sonicated in a covaris sonicator for 10 min. A total of 30 μl of 10% Triton X-100 was added, and lysate was centrifuged for 10 min at 20,000 rcf to purify the debris. The supernatant was then incubated with 100 μl of magnetic beads (Life Technologies) prebound with 20 μg BRD4 antibody (Bethyl, A301-985A), and immunoprecipitation (IP) was conducted overnight in the cold room. The beads were washed ten times in 1 ml of RIPA buffer and twice in 100 mM ammonium hydrogen carbonate (AMBIC) solution. DNA was eluted in elution buffer (50 mM Tris-HCl pH 8, 10 mM EDTA, and 1% SDS). Cross-links were reversed overnight at 65° C. RNA and protein were digested with 0.2 mg/mL RNase A for 2 hr followed by 0.2 mg/mL Proteinase K for 1 hr. DNA was purified with phenol chloroform extraction and ethanol precipitation. Libraries for Illumina sequencing were prepared following the Rubicon ThruPLEX-FD kit for 10-12 cycles.

[4] = target: T1, chromatin-bound BRD4 in SUM159 cells; conditions: SUM159, JQ1 exposure
Experimental: Chem-seq was performed essentially as described^27. ChIP-seq: SUM159 and SUM159R cells (4×10^7) were grown in SUM Medium. The media were then removed and replaced with media containing 1% formaldehyde (EM grade; tebu-bio) and crosslinked for 8 min. Crosslinking was quenched by adding glycine to a final concentration of 0.2 M. The cells were washed with ice-cold PBS, harvested in PBS, and the cell pellet was washed with PBS. The nuclear fraction was extracted by first resuspending the pellet in 10 ml of LB1 buffer (50 mM HEPES-KOH [pH 7.5], 140 mM NaCl, 1mMEDTA, 10% glycerol, 0.5% NP-40 or Igepal CA-630, and 0.25% Triton X-100) for 10 min at 4° C. Cells were pelleted, resuspended in 10 ml of LB2 buffer (10 mM Tris-HCL [pH 8.0], 200 mM NaCl, 1 mM EDTA, and 0.5 mM EGTA), and mixed for 5 min. Cells were pelleted and resuspended in 300 μl of LB3 buffer (10 mM Tris-HCl [pH 8], 100 mM NaCl, 1 mM EDTA, 0.5 mM EGTA, 0.1% Na-deoxycholate, and 0.5% N-lauroylsarcosine) and sonicated in a covaris sonicator for 10 min. A total of 30 μl of 10% Triton X-100 was added, and lysate was centrifuged for 10 min at 20,000 rcf to purify the debris. The supernatant was then incubated with 100 μl of magnetic beads (Life Technologies) prebound with 20 μg BRD4 antibody (Bethyl, A301-985A), and immunoprecipitation (IP) was conducted overnight in the cold room. […]

## Cc1sc2c(c1C)C(c1ccc(Cl)cc1)=N[C@@H](CC(=O)OC(C)(C)C)c1nnc(C)n1-2 [JQ1]
SUM159 and SUM149 cells
  Expression of super-enhancer associated genes versus all active genes: significantly more likely to be down-regulated
SUM159 cells
  Apoptotic response (sub-G1 fraction, Annexin-V staining): elicited an apoptotic response
[1]
  Tumor growth: efficiently inhibited the growth of established tumors
[2]
  Association of BRD4 with MED1: had no such effect
[3]; SUM159R, JQ1 exposure
  BRD4 occupancy at Chem-seq-defined SE regions: retain chromatin-bound BRD4
[3]; SUM159R, following JQ1 treatment
  Displacement of BRD4 from chromatin: not displaced from chromatin
[3]; resistant cells
  Effect on H3K27ac or global transcription: fails to influence
[4]
  BRD4 occupancy at Chem-seq-defined SE regions: depleted of BRD4
